{"source": "patent US10213433B2", "about": "(AbbVie Inc., priority 2010, dated 2019)"}
{"target": "Bcl-2 protein (Homo sapiens (Human), UniProt P10415)", "sequence (P10415 whole entry)": "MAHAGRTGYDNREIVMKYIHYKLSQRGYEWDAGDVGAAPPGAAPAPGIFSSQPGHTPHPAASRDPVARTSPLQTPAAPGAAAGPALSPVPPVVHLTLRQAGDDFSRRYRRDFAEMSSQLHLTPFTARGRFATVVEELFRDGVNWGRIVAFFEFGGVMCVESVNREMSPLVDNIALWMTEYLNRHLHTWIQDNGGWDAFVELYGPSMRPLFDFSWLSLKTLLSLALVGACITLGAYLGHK", "assay": "Bcl-2 binding TR-FRET (Time-Resolved Fluorescence-Resonance-Energy-Transfer) assay", "details": "inhibition constant for binding to Bcl-2 protein", "excerpt": "The smaller the Ki value, the greater is the binding affinity.", "units": {"Ki": "nM"}}
{"molecule": "COC(=O)N1CCOC(CNc2ccc(S(=O)(=O)NC(=O)c3ccc(N4CCN(CC5=C(c6ccc(Cl)cc6)CC(C)(C)CC5)CC4)cc3Oc3cnc4[nH]ccc4c3)cc2[N+](=O)[O-])C1", "note": "(stereo not shown) [Compound 317, methyl 2-{[(4-{[4-(4-{[2-(4-chlorophenyl)-4,4-dimethylcyclohex-1-en-1-yl]methyl}piperazin-1-yl)-2-(1H-pyrrolo[2,3-b]pyridin-5-yloxy)benzoyl]sulfamoyl}-2-nitrophenyl)amino]methyl}morpholine-4-carboxylate]", "Ki": "< 0.01"}
{"molecule": "CCN(C)C(=O)N1CCOC(CNc2ccc(S(=O)(=O)NC(=O)c3ccc(N4CCN(CC5=C(c6ccc(Cl)cc6)CC(C)(C)CC5)CC4)cc3Oc3cnc4[nH]ccc4c3)cc2[N+](=O)[O-])C1", "note": "(stereo not shown) [Compound 318, 2-{[(4-{[4-(4-{[2-(4-chlorophenyl)-4,4-dimethylcyclohex-1-en-1-yl]methyl}piperazin-1-yl)-2-(1H-pyrrolo[2,3-b]pyridin-5-yloxy)benzoyl]sulfamoyl}-2-nitrophenyl)amino]methyl}-N-ethyl-N-methylmorpholine-4-carboxamide]", "Ki": "< 0.01"}
{"molecule": "CC1(C)CCC(CN2CCN(c3ccc(C(=O)NS(=O)(=O)c4ccc(NCC5CN(S(C)(=O)=O)CCO5)c([N+](=O)[O-])c4)c(Oc4cnc5[nH]ccc5c4)c3)CC2)=C(c2ccc(Cl)cc2)C1", "note": "(stereo not shown) [Compound 319, 4-(4-{[2-(4-chlorophenyl)-4,4-dimethylcyclohex-1-en-1-yl]methyl}piperazin-1-yl)-N-{[4-({[4-(methylsulfonyl)morpholin-2-yl]methyl}amino)-3-nitrophenyl]sulfonyl}-2-(1H-pyrrolo[2,3-b]pyridin-5-yloxy)benzamide]", "Ki": "< 0.01"}
{"molecule": "CC1(C)CCC(CN2CCN(c3ccc(C(=O)NS(=O)(=O)c4ccc(NCCCN(C5CCC5)C5CC5)c([N+](=O)[O-])c4)c(Oc4cnc5[nH]ccc5c4)c3)CC2)=C(c2ccc(Cl)cc2)C1", "note": "[Compound 320, 4-(4-{[2-(4-chlorophenyl)-4,4-dimethylcyclohex-1-en-1-yl]methyl}piperazin-1-yl)-N-{[4-({3-[cyclobutyl(cyclopropyl)amino]propyl}amino)-3-nitrophenyl]sulfonyl}-2-(1H-pyrrolo[2,3-b]pyridin-5-yloxy)benzamide]", "Ki": "< 0.01"}
{"molecule": "O=C(NS(=O)(=O)c1ccc(NCC2CCOCC2)c([N+](=O)[O-])c1)c1ccc(N2CCN(CC3=C(c4ccc(Cl)cc4)CCC(F)(F)C3)CC2)cc1Oc1cnc2[nH]ccc2c1", "note": "[Compound 321, 4-(4-{[2-(4-chlorophenyl)-5,5-difluorocyclohex-1-en-1-yl]methyl}piperazin-1-yl)-N-({3-nitro-4-[(tetrahydro-2H-pyran-4-ylmethyl)amino]phenyl}sulfonyl)-2-(1H-pyrrolo[2,3-b]pyridin-5-yloxy)benzamide]", "Ki": "< 0.01"}
{"molecule": "O=C(NS(=O)(=O)c1ccc(OCC2(F)CCOCC2)c(Cl)c1)c1ccc(N2CCN(CC3=C(c4ccc(Cl)cc4)CCC4(CCN(C5COC5)CC4)C3)CC2)cc1Oc1cnc2[nH]ccc2c1", "note": "[Compound 325, N-({3-chloro-4-[(4-fluorotetrahydro-2H-pyran-4-yl)methoxy]phenyl}sulfonyl)-4-(4-{[9-(4-chlorophenyl)-3-(oxetan-3-yl)-3-azaspiro[5.5]undec-8-en-8-yl]methyl}piperazin-1-yl)-2-(1H-pyrrolo[2,3-b]pyridin-5-yloxy)benzamide]", "Ki": "< 0.01"}
{"molecule": "CC1(C)CCC(CN2CCN(c3ccc(C(=O)NS(=O)(=O)c4ccc(NC[C@@H]5CN(C6CC6)CCO5)c([N+](=O)[O-])c4)c(Oc4cnc5[nH]ccc5c4)c3)CC2)=C(c2ccc(Cl)cc2)C1", "note": "[Compound 326, 4-(4-{[2-(4-chlorophenyl)-4,4-dimethylcyclohex-1-en-1-yl]methyl}piperazin-1-yl)-N-{[4-({[(2R)-4-cyclopropylmorpholin-2-yl]methyl}amino)-3-nitrophenyl]sulfonyl}-2-(1H-pyrrolo[2,3-b]pyridin-5-yloxy)benzamide]", "Ki": "< 0.01"}
